Measured values taken from the Kinase Knowledgebase extract (Sharma et al. 2016).

Assays:
[1] = target: PIK3CA (human) (UniProt P42336); assay: Inhibition of PIK3CA Kinase Activity
[2] = target: PIK3CD (Human) (UniProt O00329); assay: Inhibition of PIK3CD Kinase Activity
[3] = target: PIK3CB (Human) (UniProt P42338); assay: Inhibition of PIK3CB Kinase Activity
[4] = target: PIK3CG (human) (UniProt P48736); assay: Inhibition of PIK3CG Kinase Activity

Measured: IC50

PIK3CB (Human), sequence (P42338 whole entry, looked up): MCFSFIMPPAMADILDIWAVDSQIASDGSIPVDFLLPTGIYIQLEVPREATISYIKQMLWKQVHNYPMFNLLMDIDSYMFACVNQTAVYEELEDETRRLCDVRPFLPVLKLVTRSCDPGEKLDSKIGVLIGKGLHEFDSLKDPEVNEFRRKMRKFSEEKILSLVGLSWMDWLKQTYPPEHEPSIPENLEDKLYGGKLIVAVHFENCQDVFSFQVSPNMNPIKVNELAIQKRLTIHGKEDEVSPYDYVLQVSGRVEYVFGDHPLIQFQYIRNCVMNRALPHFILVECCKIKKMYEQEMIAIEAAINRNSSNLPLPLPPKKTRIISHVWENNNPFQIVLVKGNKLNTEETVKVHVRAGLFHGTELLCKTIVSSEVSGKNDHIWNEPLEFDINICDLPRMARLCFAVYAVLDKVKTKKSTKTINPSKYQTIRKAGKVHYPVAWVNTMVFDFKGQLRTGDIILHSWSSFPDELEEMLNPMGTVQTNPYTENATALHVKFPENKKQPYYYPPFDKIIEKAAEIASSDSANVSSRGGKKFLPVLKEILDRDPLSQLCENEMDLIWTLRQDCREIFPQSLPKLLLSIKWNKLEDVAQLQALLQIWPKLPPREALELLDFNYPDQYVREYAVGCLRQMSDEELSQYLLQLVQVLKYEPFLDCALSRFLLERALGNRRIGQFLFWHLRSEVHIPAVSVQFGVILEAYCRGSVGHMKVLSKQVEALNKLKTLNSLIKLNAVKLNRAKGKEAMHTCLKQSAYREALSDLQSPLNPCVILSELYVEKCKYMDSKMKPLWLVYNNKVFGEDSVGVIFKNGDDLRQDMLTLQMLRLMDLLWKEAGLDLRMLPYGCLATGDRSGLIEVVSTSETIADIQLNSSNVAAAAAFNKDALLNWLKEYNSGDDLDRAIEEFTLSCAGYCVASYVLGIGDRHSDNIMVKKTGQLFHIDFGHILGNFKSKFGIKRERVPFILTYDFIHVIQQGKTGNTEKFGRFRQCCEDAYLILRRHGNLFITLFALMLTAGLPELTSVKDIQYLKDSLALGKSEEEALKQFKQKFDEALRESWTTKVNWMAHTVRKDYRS
PIK3CD (Human), sequence (O00329 whole entry, looked up): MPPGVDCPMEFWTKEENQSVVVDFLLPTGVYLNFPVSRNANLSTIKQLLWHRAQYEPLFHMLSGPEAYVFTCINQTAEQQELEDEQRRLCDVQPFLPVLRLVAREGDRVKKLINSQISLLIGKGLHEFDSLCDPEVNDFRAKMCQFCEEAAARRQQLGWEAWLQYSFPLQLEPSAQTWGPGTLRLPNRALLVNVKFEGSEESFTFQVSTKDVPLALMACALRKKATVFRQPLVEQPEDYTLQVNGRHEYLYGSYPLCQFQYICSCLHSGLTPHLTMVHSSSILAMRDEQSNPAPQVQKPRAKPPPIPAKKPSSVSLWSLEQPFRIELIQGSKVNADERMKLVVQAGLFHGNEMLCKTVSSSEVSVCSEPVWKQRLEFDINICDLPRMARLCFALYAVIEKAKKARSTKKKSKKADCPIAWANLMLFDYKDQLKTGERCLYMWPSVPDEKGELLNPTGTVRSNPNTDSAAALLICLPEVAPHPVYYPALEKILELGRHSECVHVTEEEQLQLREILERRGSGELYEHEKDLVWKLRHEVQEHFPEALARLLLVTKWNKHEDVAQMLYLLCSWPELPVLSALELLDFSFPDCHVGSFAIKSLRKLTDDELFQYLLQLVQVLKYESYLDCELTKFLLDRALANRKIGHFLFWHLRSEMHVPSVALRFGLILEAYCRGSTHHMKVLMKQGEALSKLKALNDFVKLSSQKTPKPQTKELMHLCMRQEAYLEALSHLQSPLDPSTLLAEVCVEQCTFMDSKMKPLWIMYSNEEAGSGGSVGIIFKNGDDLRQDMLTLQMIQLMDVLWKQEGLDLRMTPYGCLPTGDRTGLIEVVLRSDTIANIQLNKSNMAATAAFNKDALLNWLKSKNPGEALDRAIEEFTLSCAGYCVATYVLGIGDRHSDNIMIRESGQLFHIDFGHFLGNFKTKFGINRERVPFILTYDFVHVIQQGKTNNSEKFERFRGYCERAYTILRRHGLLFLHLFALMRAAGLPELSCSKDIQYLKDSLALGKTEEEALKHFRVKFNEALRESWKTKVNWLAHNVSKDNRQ
PIK3CG (human), sequence (P48736 whole entry, looked up): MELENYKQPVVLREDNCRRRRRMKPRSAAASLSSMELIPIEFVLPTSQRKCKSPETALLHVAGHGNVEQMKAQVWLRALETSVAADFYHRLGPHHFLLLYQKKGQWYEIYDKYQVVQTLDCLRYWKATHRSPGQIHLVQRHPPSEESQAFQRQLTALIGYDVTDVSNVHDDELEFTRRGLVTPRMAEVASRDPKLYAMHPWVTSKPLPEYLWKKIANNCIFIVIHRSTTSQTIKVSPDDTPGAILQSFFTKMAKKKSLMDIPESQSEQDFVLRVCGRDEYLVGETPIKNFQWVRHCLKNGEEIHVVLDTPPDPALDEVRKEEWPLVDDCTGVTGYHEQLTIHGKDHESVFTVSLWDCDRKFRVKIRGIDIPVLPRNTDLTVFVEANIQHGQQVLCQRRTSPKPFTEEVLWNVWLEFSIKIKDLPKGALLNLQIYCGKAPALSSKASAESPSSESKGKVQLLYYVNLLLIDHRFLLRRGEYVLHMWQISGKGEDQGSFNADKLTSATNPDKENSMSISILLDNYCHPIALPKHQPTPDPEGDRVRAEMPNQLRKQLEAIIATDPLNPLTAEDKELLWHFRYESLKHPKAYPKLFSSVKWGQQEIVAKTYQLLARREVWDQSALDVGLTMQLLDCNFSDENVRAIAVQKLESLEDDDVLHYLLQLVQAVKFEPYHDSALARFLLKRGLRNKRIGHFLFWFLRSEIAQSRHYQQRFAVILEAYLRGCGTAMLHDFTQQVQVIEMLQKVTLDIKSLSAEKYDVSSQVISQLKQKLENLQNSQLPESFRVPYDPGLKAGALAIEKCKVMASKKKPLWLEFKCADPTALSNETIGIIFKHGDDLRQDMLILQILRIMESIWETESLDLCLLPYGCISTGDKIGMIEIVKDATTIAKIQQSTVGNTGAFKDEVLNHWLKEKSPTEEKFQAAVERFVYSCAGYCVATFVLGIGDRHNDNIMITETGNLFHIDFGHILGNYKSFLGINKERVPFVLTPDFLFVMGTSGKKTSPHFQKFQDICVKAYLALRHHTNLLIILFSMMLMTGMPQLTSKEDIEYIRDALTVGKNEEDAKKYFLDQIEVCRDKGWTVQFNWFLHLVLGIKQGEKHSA
PIK3CA (human), sequence (P42336 whole entry, looked up): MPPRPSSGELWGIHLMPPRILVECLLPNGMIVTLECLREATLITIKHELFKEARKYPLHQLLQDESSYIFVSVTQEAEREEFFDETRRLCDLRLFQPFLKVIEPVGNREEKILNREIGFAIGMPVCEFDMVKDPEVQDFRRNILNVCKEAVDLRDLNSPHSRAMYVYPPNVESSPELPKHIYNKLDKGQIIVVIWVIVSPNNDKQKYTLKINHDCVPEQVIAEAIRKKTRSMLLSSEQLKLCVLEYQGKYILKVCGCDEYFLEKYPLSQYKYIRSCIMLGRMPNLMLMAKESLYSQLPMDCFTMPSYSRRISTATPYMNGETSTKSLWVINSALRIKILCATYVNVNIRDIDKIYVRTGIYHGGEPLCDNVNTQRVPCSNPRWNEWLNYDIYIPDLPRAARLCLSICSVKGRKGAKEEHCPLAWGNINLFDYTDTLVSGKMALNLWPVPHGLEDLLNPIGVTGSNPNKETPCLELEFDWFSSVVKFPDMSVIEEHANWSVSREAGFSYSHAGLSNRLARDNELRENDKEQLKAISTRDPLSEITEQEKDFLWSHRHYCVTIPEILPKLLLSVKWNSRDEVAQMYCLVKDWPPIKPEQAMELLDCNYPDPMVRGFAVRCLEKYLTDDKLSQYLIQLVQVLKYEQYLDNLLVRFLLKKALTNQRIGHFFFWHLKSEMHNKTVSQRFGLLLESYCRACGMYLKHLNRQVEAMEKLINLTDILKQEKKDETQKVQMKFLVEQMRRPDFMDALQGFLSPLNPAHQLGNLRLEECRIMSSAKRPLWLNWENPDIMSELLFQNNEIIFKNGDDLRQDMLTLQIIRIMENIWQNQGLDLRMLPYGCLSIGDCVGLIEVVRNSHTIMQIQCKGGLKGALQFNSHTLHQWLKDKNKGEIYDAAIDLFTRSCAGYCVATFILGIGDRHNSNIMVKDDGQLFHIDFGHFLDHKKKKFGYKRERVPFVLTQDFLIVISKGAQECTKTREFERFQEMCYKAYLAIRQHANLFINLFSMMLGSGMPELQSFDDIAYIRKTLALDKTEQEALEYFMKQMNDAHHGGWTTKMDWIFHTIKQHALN

CC1(C)CC(=O)c2sc(N3CCOC(CNC(=O)c4cc5ccccc5o4)C3)nc2C1 (stereo not drawn)
≤ 50 µM: [1] | [2] | [3] | [4]

CC1(C)CC(=S)c2sc(N3CCOCC3Cc3cccc4ccccc34)nc2C1 (stereo not drawn)
≤ 50 µM: [1] | [2] | [3] | [4]

CC1(C)CC(=O)c2sc(N3CCOC[C@@H]3Cc3cccc(-c4cccc(F)c4)c3)nc2C1
≤ 50 µM: [1] | [2] | [3] | [4]

CC1(C)CC(=O)c2sc(N3CCOC[C@@H]3Cn3nnc4ccccc43)nc2C1
≤ 50 µM: [1] | [2] | [3] | [4]

CC1(C)CC(=O)c2sc(N3CCOC(c4ccccc4)C3)nc2C1 (stereo not drawn)
≤ 50 µM: [1] | [2] | [3] | [4]

CC1(C)CC(=O)c2sc(N3CCOC[C@@H]3Cc3cccc(-c4cccc(Br)c4)c3)nc2C1
≤ 50 µM: [1] | [2] | [3] | [4]

Cc1cc(-c2cccc(C[C@H]3COCCN3c3nc4c(s3)C(=O)CC(C)(C)C4)c2)ccc1F
≤ 50 µM: [1] | [2] | [3] | [4]

CC1(C)CC(=O)c2sc(N3CCOCC3Cc3c[nH]c4ccccc34)nc2C1 (stereo not drawn)
≤ 50 µM: [1] | [2] | [3] | [4]

O=C1NCCCc2nc(N3CCOCC3)sc21
≤ 50 µM: [1] | [2] | [3] | [4]

COc1ccc(-c2cccc(C[C@H]3COCCN3c3nc4c(s3)C(=O)CC(C)(C)C4)c2)cc1
≤ 50 µM: [1] | [2] | [3] | [4]

CC1(C)CC(=NO)c2sc(N3CCOCC3)nc2C1
≤ 50 µM: [1] | [2] | [3] | [4]

C[C@@H]1CN(c2nc3c(s2)C(=O)CC(C)(C)C3)C[C@@H](C)O1
≤ 50 µM: [1] | [2] | [3] | [4]

CC1(C)CNC(=O)c2sc(N3CCOC[C@@H]3Cc3cccc(-c4ccccc4)c3)nc2C1
≤ 50 µM: [1] | [2] | [3] | [4]

CC1(C)CC(=O)c2sc(N3CCOC[C@@H]3Cc3cccc(-c4csc5ccccc45)c3)nc2C1
≤ 50 µM: [1] | [2] | [3] | [4]

CC1(C)CC(=O)c2sc(N3CCOC[C@@H]3Cc3cccc(-c4ccccc4Cl)c3)nc2C1
≤ 50 µM: [1] | [2] | [3] | [4]

CC1(C)CC(=O)c2sc(N3CCOC[C@@H]3Cc3cccc(-c4ccccc4C(F)(F)F)c3)nc2C1
≤ 50 µM: [1] | [2] | [3] | [4]

CC1(C)CC(=O)c2sc(N3CCOC[C@@H]3Cc3cccc(-c4c(F)cccc4F)c3)nc2C1
≤ 50 µM: [1] | [2] | [3] | [4]
